Measured values reported in the NIST ThermoML archive (doi:10.1021/acs.jced.6b00430).
± gives the expanded uncertainty stated by the source.

Experiment: xn = mol fraction of the nth substance listed
Conditions: 100 kPa, Liquid; for electrical conductivity: Alternating current cell with electrodes; for viscosity: Capillary tube (Ostwald / Ubbelohde) method; for mass density: Vibrating tube method

O=[PH](O)O [phosphonic acid] + O
Conditions | electrical conductivity [S/m] | mass density [kg/m3] | viscosity [mPa·s]
298.15 K, x1 = 0.0122 | 7.43 ± 0.75 | 1022.04 ± 10 | 0.962 ± 0.058
298.15 K, x1 = 0.0215 | 10.4 ± 1 | 1039.69 ± 10 | 1.05 ± 0.06
298.15 K, x1 = 0.0299 | 13.4 ± 1.3 | 1055.02 ± 10 | 1.17 ± 0.07
298.15 K, x1 = 0.0403 | 16.9 ± 1.7 | 1073.24 ± 10 | –
298.15 K, x1 = 0.0451 | – | 1081.91 ± 10 | –
298.15 K, x1 = 0.0484 | 18.5 ± 1.9 | 1087.03 ± 10 | –
298.15 K, x1 = 0.0541 | 20 ± 2 | 1096.6 ± 10 | –
298.15 K, x1 = 0.0682 | 22.1 ± 2.2 | 1119.23 ± 10 | –
298.15 K, x1 = 0.0704 | 22.4 ± 2.2 | 1122.59 ± 10 | 1.64 ± 0.1
298.15 K, x1 = 0.0799 | 23.9 ± 2.4 | 1137.16 ± 10 | –
298.15 K, x1 = 0.0832 | – | 1141.9 ± 10 | –
298.15 K, x1 = 0.1011 | 25.9 ± 2.6 | 1167.81 ± 10 | 2.06 ± 0.12
298.15 K, x1 = 0.1335 | 26 ± 2.6 | 1210.62 ± 10 | 2.6 ± 0.16
298.15 K, x1 = 0.1689 | 25.7 ± 2.6 | 1252.12 ± 10 | –
298.15 K, x1 = 0.1909 | 25.2 ± 2.5 | 1275.45 ± 10 | –
298.15 K, x1 = 0.197 | 25 ± 2.5 | 1281.23 ± 10 | –
298.15 K, x1 = 0.2154 | 24.5 ± 2.5 | 1299.73 ± 10 | 4.24 ± 0.26
298.15 K, x1 = 0.2524 | 23.1 ± 2.3 | 1332.1 ± 10 | 5.19 ± 0.31
298.15 K, x1 = 0.292 | 20.7 ± 2.1 | 1363.42 ± 10 | 6.26 ± 0.38
298.15 K, x1 = 0.3959 | 15.4 ± 1.5 | 1434.35 ± 10 | –
308.15 K, x1 = 0.0122 | 7.89 ± 0.79 | 1018.53 ± 10 | 0.782 ± 0.047
308.15 K, x1 = 0.0215 | 11.3 ± 1.1 | 1035.86 ± 10 | 0.852 ± 0.051
308.15 K, x1 = 0.0299 | 14.3 ± 1.4 | 1050.95 ± 10 | 0.94 ± 0.057
308.15 K, x1 = 0.0403 | 18.4 ± 1.8 | 1068.89 ± 10 | –
308.15 K, x1 = 0.0451 | – | 1077.48 ± 10 | –
308.15 K, x1 = 0.0484 | 20 ± 2 | 1082.48 ± 10 | –
308.15 K, x1 = 0.0541 | 21.3 ± 2.1 | 1091.91 ± 10 | –
308.15 K, x1 = 0.0682 | 23.9 ± 2.4 | 1114.22 ± 10 | –
308.15 K, x1 = 0.0704 | 24.2 ± 2.4 | 1117.57 ± 10 | 1.31 ± 0.08
308.15 K, x1 = 0.0799 | 25.5 ± 2.6 | 1131.9 ± 10 | –
308.15 K, x1 = 0.0832 | – | 1136.63 ± 10 | –
308.15 K, x1 = 0.1011 | 27.4 ± 2.7 | 1162.2 ± 10 | 1.65 ± 0.1
308.15 K, x1 = 0.1335 | 28.6 ± 2.9 | 1204.48 ± 10 | 2.08 ± 0.13
308.15 K, x1 = 0.1689 | 28.5 ± 2.9 | 1245.45 ± 10 | –
308.15 K, x1 = 0.1909 | 28.5 ± 2.9 | 1268.54 ± 10 | –
308.15 K, x1 = 0.197 | 28 ± 2.8 | 1274.31 ± 10 | –
308.15 K, x1 = 0.2154 | 28 ± 2.8 | 1292.62 ± 10 | 3.32 ± 0.2
308.15 K, x1 = 0.2524 | 25.8 ± 2.6 | 1324.67 ± 10 | 4.12 ± 0.25
308.15 K, x1 = 0.292 | 23.9 ± 2.4 | 1355.74 ± 10 | 4.94 ± 0.3
308.15 K, x1 = 0.3959 | 18.5 ± 1.9 | 1426.18 ± 10 | –
318.15 K, x1 = 0.0122 | 8.18 ± 0.82 | 1013.66 ± 10 | 0.636 ± 0.038
318.15 K, x1 = 0.0215 | 11.8 ± 1.2 | 1030.98 ± 10 | 0.689 ± 0.042
318.15 K, x1 = 0.0299 | 15 ± 1.5 | 1045.97 ± 10 | 0.754 ± 0.046
318.15 K, x1 = 0.0403 | 19.2 ± 1.9 | 1063.78 ± 10 | –
318.15 K, x1 = 0.0451 | – | 1072.47 ± 10 | –
318.15 K, x1 = 0.0484 | 20.9 ± 2.1 | 1077.26 ± 10 | –
318.15 K, x1 = 0.0541 | 22.4 ± 2.2 | 1086.62 ± 10 | –
318.15 K, x1 = 0.0682 | 25.4 ± 2.5 | 1108.74 ± 10 | –
318.15 K, x1 = 0.0704 | 25.8 ± 2.6 | 1112.04 ± 10 | 1.06 ± 0.06
318.15 K, x1 = 0.0799 | 27.3 ± 2.7 | 1126.27 ± 10 | –
318.15 K, x1 = 0.0832 | – | 1130.94 ± 10 | –
318.15 K, x1 = 0.1011 | 29.7 ± 3 | 1156.21 ± 10 | 1.32 ± 0.08
318.15 K, x1 = 0.1335 | 31.3 ± 3.1 | 1198.05 ± 10 | 1.66 ± 0.1
318.15 K, x1 = 0.1689 | 31.5 ± 3.2 | 1238.7 ± 10 | –
318.15 K, x1 = 0.1909 | 31.2 ± 3.1 | 1261.54 ± 10 | –
318.15 K, x1 = 0.197 | 30.8 ± 3.1 | 1267.22 ± 10 | –
318.15 K, x1 = 0.2154 | 30 ± 3 | 1285.38 ± 10 | 2.68 ± 0.16
318.15 K, x1 = 0.2524 | 28.8 ± 2.9 | 1317.07 ± 10 | 3.27 ± 0.2
318.15 K, x1 = 0.292 | 27.2 ± 2.7 | 1347.86 ± 10 | 3.9 ± 0.24
318.15 K, x1 = 0.3959 | 21.1 ± 2.1 | 1418.01 ± 10 | –
328.15 K, x1 = 0.0122 | 8.38 ± 0.84 | 1009.46 ± 10 | 0.529 ± 0.032
328.15 K, x1 = 0.0215 | 12.1 ± 1.2 | 1026.28 ± 10 | 0.567 ± 0.034
328.15 K, x1 = 0.0299 | 15.3 ± 1.5 | 1041.02 ± 10 | 0.617 ± 0.037
328.15 K, x1 = 0.0403 | 19.6 ± 2 | 1058.55 ± 10 | –
328.15 K, x1 = 0.0451 | – | 1066.53 ± 10 | –
328.15 K, x1 = 0.0484 | 21.9 ± 2.2 | 1071.83 ± 10 | –
328.15 K, x1 = 0.0541 | 23.5 ± 2.4 | 1081.05 ± 10 | –
328.15 K, x1 = 0.0682 | 26.5 ± 2.7 | 1102.88 ± 10 | –
328.15 K, x1 = 0.0704 | 26.9 ± 2.7 | 1106.07 ± 10 | 0.866 ± 0.052
328.15 K, x1 = 0.0799 | 28.6 ± 2.9 | 1120.18 ± 10 | –
328.15 K, x1 = 0.0832 | – | 1124.84 ± 10 | –
328.15 K, x1 = 0.1011 | 31 ± 3.1 | 1149.89 ± 10 | 1.07 ± 0.06
328.15 K, x1 = 0.1335 | 33.3 ± 3.3 | 1191.35 ± 10 | 1.35 ± 0.08
328.15 K, x1 = 0.1689 | 33.8 ± 3.4 | 1231.63 ± 10 | –
328.15 K, x1 = 0.1909 | 33.3 ± 3.3 | 1254.36 ± 10 | –
328.15 K, x1 = 0.197 | 33.2 ± 3.3 | 1259.95 ± 10 | –
328.15 K, x1 = 0.2154 | 32.5 ± 3.3 | 1277.98 ± 10 | 2.2 ± 0.13
328.15 K, x1 = 0.2524 | 31.3 ± 3.1 | 1309.72 ± 10 | 2.65 ± 0.16
328.15 K, x1 = 0.292 | 30.2 ± 3 | 1340.42 ± 10 | 3.14 ± 0.19
328.15 K, x1 = 0.3959 | 24.1 ± 2.4 | 1409.83 ± 10 | –
338.15 K, x1 = 0.0122 | 8.4 ± 0.84 | 1001.4 ± 10 | 0.464 ± 0.028
338.15 K, x1 = 0.0215 | 12.2 ± 1.2 | 1018.77 ± 10 | 0.49 ± 0.03
338.15 K, x1 = 0.0299 | 15.6 ± 1.6 | 1033.72 ± 10 | 0.531 ± 0.032
338.15 K, x1 = 0.0403 | 20.3 ± 2 | 1051.48 ± 10 | –
338.15 K, x1 = 0.0451 | – | 1060.26 ± 10 | –
338.15 K, x1 = 0.0484 | 22.9 ± 2.3 | 1064.9 ± 10 | –
338.15 K, x1 = 0.0541 | 24.2 ± 2.4 | 1074.21 ± 10 | –
338.15 K, x1 = 0.0682 | 27.7 ± 2.8 | 1096.19 ± 10 | –
338.15 K, x1 = 0.0704 | 28.2 ± 2.8 | 1099.46 ± 10 | 0.749 ± 0.045
338.15 K, x1 = 0.0799 | 30 ± 3 | 1113.58 ± 10 | –
338.15 K, x1 = 0.0832 | – | 1118.32 ± 10 | –
338.15 K, x1 = 0.1011 | 32.9 ± 3.3 | 1143.23 ± 10 | 0.922 ± 0.056
338.15 K, x1 = 0.1335 | 35.3 ± 3.5 | 1184.38 ± 10 | 1.16 ± 0.07
338.15 K, x1 = 0.1689 | 35.5 ± 3.6 | 1224.52 ± 10 | –
338.15 K, x1 = 0.1909 | 35 ± 3.5 | 1246.94 ± 10 | –
338.15 K, x1 = 0.197 | 34.9 ± 3.5 | 1252.51 ± 10 | –
338.15 K, x1 = 0.2154 | 34.1 ± 3.4 | 1270.41 ± 10 | 1.88 ± 0.11
338.15 K, x1 = 0.2524 | 33.5 ± 3.4 | 1301.38 ± 10 | 2.25 ± 0.14
338.15 K, x1 = 0.292 | 32.4 ± 3.2 | 1331.63 ± 10 | 2.66 ± 0.16
338.15 K, x1 = 0.3959 | 25.9 ± 2.6 | 1401.65 ± 10 | –
